# Measured values taken from US8252832B2, “Kinesin inhibitors as cancer therapeutics” (Novartis AG, priority 2007, dated 2012).
# System: HCT-116
# Test: CTG (CellTiter-Glo) screening assay
# Type: cell-based
# Details: Homo sapiens
# Text: Identification of tumor types that are the most sensitive to the KSP inhibitors of the present invention can be accomplished using an unbiased approach that uses several cell-based assays. The assays chosen were as follows: • CellTiter-Glo®. This is an assay designed to measure ATP concentration in a cell culture, and can be correlated to cell number. Briefly CellTiter-Glo® (Promega Corporation) is a homogeneous method using the single CellTiter-Glo® reagent to detect ATP wherein ATP in the assay drives the activity of a thermostable luciferase to create a luminescent signal which can then be measured and correlated with the number of viable cells. Briefly, for adherent cells, 1,000 to 5,000 cells/well were plated in 96-well plates (100 μl/well) and let to adhere for 24 hours before being treated with drug. For non-adherent cells, 1,000 to 10,000 cells/well were plated in 96-well plates (100 μl/well) and immediately treated with drug. Drug dilutions were prepared in DMSO at 1000 times the final concentration. These dilutions were then diluted 1/100 in growth media before being added to the cells (11 μl/well) to achieve the desired final concentration. […] Protocol for a 72 hour cell proliferation assay: The 72 hour assay was performed the same way as the 48 hour assay except for the following modifications: For adherent cells, 500 to 5,000 cells/well were plated in 96-well plates (90 μl/well cell growth media) and left to adhere for 24 hours before being treated with drug. For non-adherent cells, 1,000 to 10,000 cells/well were plated in 96-well plates (90 μl/well cell growth media) and immediately treated with drug. Data values presented represent the concentration of test compound required for a 50% reduction in growth. • LDH release. […] The enzymatic reaction is coupled to a chemical reaction that uses a tetrazolium salt to form a formazan that is red and can be detected by its absorbance at 490 nm. […]
structure (smiles),measurement,setting,value
CC(C)(C)[C@H](c1nc(-c2cc(F)ccc2F)cn1Cc1ccccc1)N(CC[C@H](N)CF)C(=O)CO [Compound IIa],GI50,"HCT-116, 24 h",> 5 nM
same,GI50,"HCT-116, 48 h",0.11 nM
same,GI50,"HCT-116, 72 h",0.13 nM
